Assay results taken from PubChem BioAssay AID2060900 (Molecular Pharmacology Branch, DTP, NCI, 2025).

Tested on: 521955-158-R2-J5-PDC complex spheroids, viability
Assay: Anticancer human tumor 521955-158-R2-J5-PDC patient-derived pancreatic carcinoma cell line growth inhibition [RAS]
Conditions: for IC50: curve of first compound; for viability, T/C: stronger effect = lower value
Procedure, shortened: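 Multi-cell-type spheroids: tumor cells plus HUVEC endothelial cells and mesenchymal stem cells. RAS-pathway inhibitors were combined with targeted agents, each dosed in half-log steps down from clinical Cmax, or from 10 microM when Cmax was unknown.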

[1] = second compound 0.00316 µM, first compound 0.00316 µM
[2] = second compound 0.00316 µM, first compound 0.01 µM
[3] = second compound 0.00316 µM, first compound 0.0316 µM
[4] = second compound 0.00316 µM, first compound 0.1 µM
[5] = second compound 0.00316 µM, first compound 0.316 µM
[6] = second compound 0.00316 µM, first compound 1 µM
[7] = second compound 0.01 µM, first compound 0.00316 µM
[8] = second compound 0.01 µM, first compound 0.01 µM
[9] = second compound 0.01 µM, first compound 0.0316 µM
[10] = second compound 0.01 µM, first compound 0.1 µM
[11] = second compound 0.01 µM, first compound 0.316 µM
[12] = second compound 0.01 µM, first compound 1 µM
[13] = second compound 0.0316 µM, first compound 0.00316 µM
[14] = second compound 0.0316 µM, first compound 0.01 µM
[15] = second compound 0.0316 µM, first compound 0.0316 µM
[16] = second compound 0.0316 µM, first compound 0.1 µM
[17] = second compound 0.0316 µM, first compound 0.316 µM
[18] = second compound 0.0316 µM, first compound 1 µM
[19] = second compound 0.1 µM, first compound 0.00316 µM
[20] = second compound 0.1 µM, first compound 0.01 µM
[21] = second compound 0.1 µM, first compound 0.0316 µM
[22] = second compound 0.1 µM, first compound 0.1 µM
[23] = second compound 0.1 µM, first compound 0.316 µM
[24] = second compound 0.1 µM, first compound 1 µM
[25] = second compound 0.316 µM, first compound 0.00316 µM
[26] = second compound 0.316 µM, first compound 0.01 µM
[27] = second compound 0.316 µM, first compound 0.0316 µM
[28] = second compound 0.316 µM, first compound 0.1 µM
[29] = second compound 0.316 µM, first compound 0.316 µM
[30] = second compound 0.316 µM, first compound 1 µM
[31] = second compound 1 µM, first compound 0.00316 µM
[32] = second compound 1 µM, first compound 0.01 µM
[33] = second compound 1 µM, first compound 0.0316 µM
[34] = second compound 1 µM, first compound 0.1 µM
[35] = second compound 1 µM, first compound 0.316 µM
[36] = second compound 1 µM, first compound 1 µM
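Further: compound exposure lasted seven days before the viability read.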
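Wherever viability, T/C is given: spheroids also contain HUVEC endothelial cells and mesenchymal stem cells as stroma.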

C=CC(=O)Nc1cc(Nc2nccc(-c3cn(C)c4ccccc34)n2)c(OC)cc1N(C)CCN(C)C + C=CC(=O)N1CCN(c2nc(OCC3CCCN3C)nc3c(F)c(-c4nc(N)cc(C)c4C(F)(F)F)c(Cl)cc23)C(C)C1
IC50 (second compound 0.00316 µM): 970 nM
IC50 (second compound 0.01 µM): 898 nM
IC50 (second compound 0.0316 µM): > 1000 nM
IC50 (second compound 0.1 µM): 757 nM
IC50 (second compound 0.316 µM): 636 nM
IC50 (second compound 1 µM): 757 nM
viability, T/C [1]: 106%
viability, T/C [2]: 78.6%
viability, T/C [3]: 90.5%
viability, T/C [4]: 81.2%
viability, T/C [5]: 86.4%
viability, T/C [6]: 48.9%
viability, T/C [7]: 87.8%
viability, T/C [8]: 63.4%
viability, T/C [9]: 77.8%
viability, T/C [10]: 108%
viability, T/C [11]: 74.1%
viability, T/C [12]: 47.5%
viability, T/C [13]: 80.1%
viability, T/C [14]: 63.5%
viability, T/C [15]: 96.5%
viability, T/C [16]: 107%
viability, T/C [17]: 68.1%
viability, T/C [18]: 50.4%
viability, T/C [19]: 68.1%
viability, T/C [20]: 81.4%
viability, T/C [21]: 74.8%
viability, T/C [22]: 85.3%
viability, T/C [23]: 73.6%
viability, T/C [24]: 42.2%
viability, T/C [25]: 121%
viability, T/C [26]: 82.2%
viability, T/C [27]: 95.9%
viability, T/C [28]: 70.1%
viability, T/C [29]: 67.8%
viability, T/C [30]: 39%
viability, T/C [31]: 106%
viability, T/C [32]: 72.8%
viability, T/C [33]: 78.7%
viability, T/C [34]: 73.9%
viability, T/C [35]: 64%
viability, T/C [36]: 42.1%

CC(Nc1ccc2c(c1)OCCn1cc(N3C(=O)OCC3C(F)F)nc1-2)C(N)=O (stereo unspecified) + C=CC(=O)N1CCN(c2nc(OCC3CCCN3C)nc3c(F)c(-c4nc(N)cc(C)c4C(F)(F)F)c(Cl)cc23)C(C)C1
IC50 (second compound 0.00316 µM): 1320 nM
IC50 (second compound 0.01 µM): 419 nM
IC50 (second compound 0.0316 µM): 634 nM
IC50 (second compound 0.1 µM): 833 nM
IC50 (second compound 0.316 µM): 261 nM
IC50 (second compound 1 µM): 180 nM
viability, T/C [3]: 66.7%
viability, T/C [4]: 70.9%
viability, T/C [5]: 43%
viability, T/C [6]: 64.7%
viability, T/C (second compound 0.00316 µM, first compound 3.16 µM): 38.4%
viability, T/C (second compound 0.00316 µM, first compound 10 µM): 19.8%
viability, T/C [9]: 64.1%
viability, T/C [10]: 58.3%
viability, T/C [11]: 43.5%
viability, T/C [12]: 52%
viability, T/C (second compound 0.01 µM, first compound 3.16 µM): 35.5%
viability, T/C (second compound 0.01 µM, first compound 10 µM): 22.9%
viability, T/C [15]: 56.9%
viability, T/C [16]: 71.3%
viability, T/C [17]: 43.5%
viability, T/C [18]: 53.3%
viability, T/C (second compound 0.0316 µM, first compound 3.16 µM): 30.4%
viability, T/C (second compound 0.0316 µM, first compound 10 µM): 19.7%
viability, T/C [21]: 67.3%
viability, T/C [22]: 54.8%
viability, T/C [23]: 67.6%
viability, T/C [24]: 45.6%
viability, T/C (second compound 0.1 µM, first compound 3.16 µM): 28.8%
viability, T/C (second compound 0.1 µM, first compound 10 µM): 19.4%
viability, T/C [27]: 72.4%
viability, T/C [28]: 90.1%
viability, T/C [29]: 43.8%
viability, T/C [30]: 42.7%
viability, T/C (second compound 0.316 µM, first compound 3.16 µM): 33.3%
viability, T/C (second compound 0.316 µM, first compound 10 µM): 22.5%
viability, T/C [33]: 124%
viability, T/C [34]: 53.4%
viability, T/C [35]: 48.9%
viability, T/C [36]: 35.4%
viability, T/C (second compound 1 µM, first compound 3.16 µM): 33%
viability, T/C (second compound 1 µM, first compound 10 µM): 19.8%

O=C(c1ccc(F)c(F)c1Nc1ccc(I)cc1F)N1CC(O)([C@@H]2CCCCN2)C1 + C=CC(=O)N1CCN(c2nc(OCC3CCCN3C)nc3c(F)c(-c4nc(N)cc(C)c4C(F)(F)F)c(Cl)cc23)C(C)C1
IC50 (second compound 0.00316 µM): 23 nM
IC50 (second compound 0.01 µM): 14.2 nM
IC50 (second compound 0.0316 µM): 37.2 nM
IC50 (second compound 0.1 µM): 40.1 nM
IC50 (second compound 0.316 µM): 72 nM
IC50 (second compound 1 µM): 26.9 nM
viability, T/C [1]: 93%
viability, T/C [2]: 58%
viability, T/C [3]: 48%
viability, T/C [4]: 36.6%
viability, T/C [5]: 29.8%
viability, T/C [6]: 23.3%
viability, T/C [7]: 84.2%
viability, T/C [8]: 45.3%
viability, T/C [9]: 45.7%
viability, T/C [10]: 38.2%
viability, T/C [11]: 31.4%
viability, T/C [12]: 19.6%
viability, T/C [13]: 65.2%
viability, T/C [14]: 62.1%
viability, T/C [15]: 44.4%
viability, T/C [16]: 47.2%
viability, T/C [17]: 33.2%
viability, T/C [18]: 21.5%
viability, T/C [19]: 65%
viability, T/C [20]: 61.3%
viability, T/C [21]: 44.8%
viability, T/C [22]: 50.8%
viability, T/C [23]: 31.2%
viability, T/C [24]: 24.1%
viability, T/C [25]: 97%
viability, T/C [26]: 66.4%
viability, T/C [27]: 62.6%
viability, T/C [28]: 48.1%
viability, T/C [29]: 33.8%
viability, T/C [30]: 20.3%
viability, T/C [31]: 80.2%
viability, T/C [32]: 65.4%
viability, T/C [33]: 42.6%
viability, T/C [34]: 39.3%
viability, T/C [35]: 32.5%
viability, T/C [36]: 22.6%
